In article PMC3847553, “Kinetic properties of “dual” orexin receptor antagonists at OX1R and OX2R orexin receptors” (Frontiers in Neuroscience, 2013):
Read-outs that look alike come from different tables or passages of the source.

Columns and labels:
human OX1R = biological target: T1, human OX1R (Homo sapiens, UniProt O43613); assay: [3H]-BBAC competition binding over time, CHO-hOX1 membranes
T1 construct: expressed in transfected cells; host or cells: CHO; cells from GNF, San Diego
T1 sequence (O43613 1-425): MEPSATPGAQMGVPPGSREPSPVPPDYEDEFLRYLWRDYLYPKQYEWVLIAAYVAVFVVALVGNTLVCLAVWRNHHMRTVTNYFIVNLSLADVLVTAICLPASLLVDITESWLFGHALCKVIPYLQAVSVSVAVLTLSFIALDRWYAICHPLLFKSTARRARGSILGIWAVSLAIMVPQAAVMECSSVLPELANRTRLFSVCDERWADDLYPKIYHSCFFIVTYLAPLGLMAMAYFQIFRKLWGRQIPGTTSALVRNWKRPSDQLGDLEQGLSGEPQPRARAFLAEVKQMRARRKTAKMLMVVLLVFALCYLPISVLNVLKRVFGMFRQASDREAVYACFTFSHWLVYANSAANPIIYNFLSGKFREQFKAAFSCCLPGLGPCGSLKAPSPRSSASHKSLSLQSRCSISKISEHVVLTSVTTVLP
From the text: Chinese Hamster Ovary (CHO) cells stably transfected with the cDNA encoding the human OX1R (CHO-hOX1) or OX2R (CHO-hOX2) were used (kindly provided by T. Cremer and Dr. S. Geisse, NIBR Basel, Switzerland). For measurements of calcium accumulation using FLIPR® (Fluorescent Imaging Plate Reader) assay, CHO or Human Embryonic Kidney (HEK) cells stably expressing mouse, rat or human OX1R or OX2R (kindly provided by Dr. A. Chen, GNF, San Diego, CA, USA) were used. […] Cells were maintained in a humidified incubator at 37°C in 5% CO2. For crude cell membrane preparations, cells were washed and harvested in 10 mM HEPES (pH 7.5), and centrifuged at 4°C for 5 min at 2500 g. The cell pellet was either stored at −80°C or used directly.
Cell membranes were resuspended in binding assay buffer at 4°C (10 mM HEPES, pH 7.5, 0.5% (w/v) bovine serum albumin (BSA), 5 mM MgCl2, 1 mM CaCl2, and 0.05% Tween 20) and homogenized with a Polytron homogenizer at 50 Hz for 20 s. […] Radioactivity was quantified using a TopCount™ microplate counter (Perkin Elmer).
All data was analyzed using GraphPad Prism 4.0 (GraphPad, San Diego, USA). The saturation data was fit to a non-linear regression model for saturation binding with consideration for one site binding. […] Competition binding data was fit to a non-linear regression model for competition binding with consideration for variable one site binding with a non-fixed Hill slope.

sleep wake cycle = system: sleep wake cycle; design: method as in Mang et al., 2012; details: ref Mang et al., 2012, cited from earlier work
OX1R = assay: FLIPR calcium assay, OX1R, species not given; assay type: cell-based; details: species not stated
Description: (§1) Determination of orexin A-stimulated calcium accumulation was performed over 2 days using FLIPR® (Fluorescent imaging plate reader from Molecular Devices-FLIPR384). Cells expressing either human, rat or mouse OX1R or OX2R were seeded at 8,000 cells/well in black 384 well clear bottom plates and incubated overnight at 37°C. The following day, medium was discarded and cells loaded with 50 μ l of 1 mM Fluo-4 AM (Invitrogen F14202) in dimethyl sulfoxide in working buffer (Hanks' balanced salt solution, 10 mM HEPES) and incubated for 60 min at 37°C. The loading buffer was removed and cells were washed with 100 μ l working buffer containing […], 0.1% BSA, and 2.5 mM Probenecid (pH 7.4) to remove the excess Fluo-4 AM. Working buffer was added and plates were incubated 10–15 min at room temperature. The assay plate was then transferred to the Molecular Devices-FLIPR384. The baseline calcium signal was recorded for 10 s, then the antagonist of interest was injected (10 μl at 3 times the final concentration) and the calcium signal recorded every second for 1 min, then every 2 s 40 times. Plates were then incubated at room temperature for 30 min, 1, 2, or 4 h.

OX2R = assay: FLIPR calcium assay, OX2R, species not given; assay type: cell-based; details: species not stated
Description: as §1

REM sleep = system: REM sleep; design: method as in Bettica et al., 2012b, 2012c; details: 10, 30, or 60 mg; healthy volunteers and insomnia patients; ref Bettica et al., 2012b, 2012c; cited from earlier work
[1] = competition for 4.6 nM [3H]-BBAC, 15 min to 4 h, human OX1R

## CNC(=O)[C@@H](c1ccccc1)N1CCc2cc(OC)c(OC)cc2[C@@H]1CCc1ccc(C(F)(F)F)cc1 [Almorexant]
Human OX1R
  effect of incubation time on competition curves: shifted to the left with time moderately
Sleep wake cycle; OX1R KO mice
  effect on sleep: effective
Sleep wake cycle; OX2R KO mice
  effect on the sleep wake cycle: no effect on the sleep wake cycle
Sleep wake cycle; double receptor KO mice
  effect on the sleep wake cycle: no effect on the sleep wake cycle

## Cc1ccc(-c2ncccn2)c(C(=O)N2C[C@H](COc3ccc(F)cn3)CC[C@H]2C)c1 [Filorexant]
Human OX1R; [1]
  effect of incubation time on competition curves: rather insensitive to incubation time

## COc1ccnc(N2CCC3(CCCN(Cc4c[nH]c5ccccc45)C3=O)CC2)n1 [IPSU, 2-((1H-Indol-3-yl)methyl)-9-(4-methoxypyrimidin-2-yl)-2,9-diazaspiro[5.5]undecan-1-one]
Human OX1R; [1]
  effect of incubation time on competition curves: do not show time-dependency
OX1R
  effect of incubation time on potency in calcium assay: constant potency values irrespective of the incubation time
OX2R
  effect of incubation time on potency in calcium assay: constant potency values irrespective of the incubation time

## Cc1nc(C(=O)N2CCCC[C@H]2CNC(=O)c2cccc3occc23)c(-c2ccc(F)cc2)s1 [SB-649868]
Human OX1R; [1]
  effect of incubation time on competition curves: shifted to the left over time up to 4 h
REM sleep
  REM duration: increases REM duration
  latency to REM: decreases latency to REM

## Cc1ccc(-n2nccn2)c(C(=O)N2CCN(c3nc4cc(Cl)ccc4o3)CC[C@H]2C)c1 [Suvorexant]
Human OX1R
  effect of incubation time on competition curves: shifted to the left over time
